Key:
[1] = system: NEB 5-alpha E. coli; experiment: microbe, parasite or virus in culture; format: cell-based, Escherichia coli; conditions: for resistance of the maximally-resistant strain to its inhibitor after passaging without compound: 4×12 h serial passages without test compounds, then 24 h proliferation assay; for EC50: Escherichia coli, read-out: EC50 plateau after intermediate resistance
Method: Evaluating the ability of E. coli to generate resistance to lead inhibitors. […] NEB 5-alpha E. coli bacteria were streaked onto an LB agar plate and grown overnight at 37° C. […] The overnight cultures were then sub-cultured (10× dilution) into fresh media solutions and grown at 37° C. to mid-log phase, then diluted into fresh media to achieve two separate cultures with final OD600 readings of 0.01. […] Test compounds were evaluated in duplicate with concentration ranges during the resistance assay from 100 μM to 48.8 nM, 2-fold dilution series. […] OD600 readings were taken at the 24 h time point to monitor for bacterial growth. A second baseline control plate was prepared analogously, without any bacteria added, to correct for possible compound absorbance and/or precipitation. For inoculations on subsequent days, bacteria from the wells with the highest test compound concentration where the OD600 was >0.2, were sub-cultured in 5 mL of fresh media at 37° C. until mid-log phase growth was reached. Separate cultures were maintained from this point forward for each of the compound replicates—i.e. 6 cultures continually propagated. The bacteria were then diluted into fresh media to OD600 of 0.01 and the bacteria were propagated again as described above.

[2] = system: nifuroxazide resistant E. coli; format: cell-based, Escherichia coli
[3] = system: FHC colon cells; experiment: Alamar Blue-based viability assay, human colon cells; conditions: for CC50: human, 48 h
Method: (§1) Evaluating compound effects on the viability of human colon and small intestine cells. […] Evaluating compound effects on the viability of human colon and small intestine cells. Evaluation of compound cytotoxicities to FHC colon and FHs 74 Int small intestine cells were performed using Alamar Blue-based viability assays. […] FHs 74 Int cells were maintained in Hybri-care medium (ATCC 46-X) supplemented with 30 ng/mL recombinant epidermal growth factor (EGF) and 10% FBS (Midwest Scientific, USDAFBS).

[4] = system: FHs 74 Int small intestine cells; experiment: in vitro; conditions: for CC50: human, 48 h
Method: as §1

[5] = system: compound 17 resistant E. coli
[6] = system: Klebsiella pneumoniae strain NCTC 9633 (ATCC #13883); conditions: previously found; read-out: EC50 proliferation of K. pneumoniae; cited from earlier work
[7] = system: B. subtilis; conditions: previously found; read-out: EC50 proliferation of B. subtilis; cited from earlier work
[8] = system: Acinetobacter baumannii strain 2208 (ATCC 19606); conditions: previously found; read-out: EC50 proliferation of A. baumannii; cited from earlier work
[9] = system: methicillin-resistant S. aureus; conditions: previously found; read-out: EC50 proliferation of methicillin-resistant S. aureus; cited from earlier work
[10] = molecular target: T1, E. coli GroEL/ES (Escherichia coli, UniProt P0A6F5); conditions: read-out: IC50 GroEL/ES-mediated refolding of denatured malate dehydrogenase; previously found; cited from earlier work
T1 construct: made in house; host or cells: GroEL in NEB 5-alpha E. coli; GroES in E. coli BL21 (DE3)

[11] = system: nitrofurantoin resistant E. coli; format: cell-based, Escherichia coli
[12] = CC50 colon cells over EC50 E. coli proliferation
[13] = CC50 intestine cells over EC50 E. coli proliferation

T1 sequence (P0A6F5 2-548): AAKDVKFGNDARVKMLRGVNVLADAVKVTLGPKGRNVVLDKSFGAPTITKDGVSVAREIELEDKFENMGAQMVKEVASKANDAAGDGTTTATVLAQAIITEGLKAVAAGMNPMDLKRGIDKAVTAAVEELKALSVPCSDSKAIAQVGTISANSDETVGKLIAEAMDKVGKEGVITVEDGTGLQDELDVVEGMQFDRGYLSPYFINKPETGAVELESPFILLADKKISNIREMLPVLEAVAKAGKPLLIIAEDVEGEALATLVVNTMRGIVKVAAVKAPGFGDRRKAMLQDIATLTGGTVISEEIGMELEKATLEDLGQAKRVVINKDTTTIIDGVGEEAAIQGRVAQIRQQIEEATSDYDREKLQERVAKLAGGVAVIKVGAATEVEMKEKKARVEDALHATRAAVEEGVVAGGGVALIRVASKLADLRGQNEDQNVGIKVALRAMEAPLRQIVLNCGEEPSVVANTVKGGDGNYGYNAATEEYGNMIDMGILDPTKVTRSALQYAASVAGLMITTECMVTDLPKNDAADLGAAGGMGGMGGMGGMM

Compound | resistance of the maximally-resistant strain to its inhibitor after passaging without compound [1] | EC50 [1] [µM] | response of nifuroxazide-resistant strains to the other inhibitor [2] | SI (CC50/EC50) Colon [3, 12] | CC50 [3] [µM] | cytotoxicity to human cells in words [4] | SI (CC50/EC50) Intestine [4, 13] | CC50 [4] [µM] | 17-resistant strains susceptible to the other inhibitor [5] | EC50 [6] [µM] | EC50 [7] [µM] | EC50 [8] [µM] | EC50 [9] [µM] | IC50 [10] [µM] | response of nitrofurantoin-resistant strains to the other inhibitor [11] | SI (CC50/EC50) Colon [3] | SI (CC50/EC50) Intestine [4]
O=C1CN(/N=C/c2ccc([N+](=O)[O-])o2)C(=O)N1 [Nitrofurantoin, reference compound] | still resistant | 20 to 40 | cross-resistant | >146 | > 100 | low to no cytotoxicity | >146 | > 100 | not |  |  |  |  |  |  |  | 
COc1ccc(C(=O)N/N=C/c2ccc(O)c3ncccc23)cc1 [Compound 1, N′-((8-hydroxyquinolin-5-yl)methylene)-4-methoxybenzohydrazide] |  |  |  |  |  |  |  |  |  | 95 | 83 | 32 | 56 | 31 |  |  | 
O=C(N/N=C/c1ccc([N+](=O)[O-])o1)c1ccc(O)cc1 [Nifuroxazide, reference compound] | still resistant | 20 to 40 |  | 70 | 61 | low to no cytotoxicity | 91 | 79 | susceptible |  |  |  |  |  | still sensitive |  | 
O=C(N/N=C/c1ccc([N+](=O)[O-])o1)c1ccc(Cl)s1 [Compound 17, 5-chloro-N′-((5-nitrofuran-2-yl)methylene)thiophene-2-carbohydrazide] | still resistant | 20 to 40 | cross-resistant |  | 53 | low to no cytotoxicity |  | 85 |  |  |  |  |  |  | still sensitive | 119 | 190
